Data on 28 compounds can be found in patent US10323000B2, “Indole derivatives and their use in neurodegenerative diseases” (priority 2014, dated 2019).

The target of assay [1] is P2X7 (IL-1β release from THP-1 cells) (Homo sapiens (Human), UniProt Q99572). As to the kind of experiment: IL-1β release assay. Type of assay: cell-based. The protocol: IL-1β release assay: The activation of P2X7 by ATP leads to a fast transient activation of cells resulting in influx of Ca^2+ followed by conversion of pro-IL-1β to active IL-1β. The functional activity of P2X7 compounds was measured by the release of mature […] in the culture medium of THP-1 cells, detected by sandwich ELISA. […] THP-1 cells were harvested from the flask in 50 ml by centrifugation for 3 min at 100 g. The cells were resuspended to 2×10^5 cells/ml in medium supplemented with 0.5 μM PMA and incubated. The cells were washed and resuspended to 1.5×10^5 cells/ml in medium complemented with 10 ng/ml LPS, and the cells were primed for 4 h at 37° C., 5% CO2. After addition of 20 μL of prediluted test compounds, blank, standard and control reagents, cells were incubated for a further 20 min at 37° C. and stimulated with 0.8 mM BzATP for 30 minutes. The cells were centrifuged, supernatant was collected and the presence of mature IL-1β was detected using Dual human IL-1b kit following manufacturer's instruction. The tetrahydrobenzodiazepine analogs effectively modulated the activity of P2X7 in the cells as measured by the levels of pro-inflammatory cytokine IL-1β, which is released by the activation of P2X7 receptor.

The target in assay [2] is human P2X7 receptor (Homo sapiens (Human), UniProt Q99572). As to the kind of experiment: Pore permeation assay (YO PRO dye uptake). The format is cell-based.
[3] abbreviates: THP-1 cells, LPS primed, 0.8 mM BzATP, mature IL-1β by sandwich ELISA, read-out: hTHP-1/IL-ib IC50.
The mark [4] stands for this setting: HEK293 transfected with human P2X7, BzATP 10 uM, YO PRO dye uptake, read-out: hP2X7 IC50.

Like-named read-outs stand apart in the source and are kept apart here. Some results are limits rather than exact numbers.

Chain of P2X7 (IL-1β release from THP-1 cells) (Q99572 whole entry): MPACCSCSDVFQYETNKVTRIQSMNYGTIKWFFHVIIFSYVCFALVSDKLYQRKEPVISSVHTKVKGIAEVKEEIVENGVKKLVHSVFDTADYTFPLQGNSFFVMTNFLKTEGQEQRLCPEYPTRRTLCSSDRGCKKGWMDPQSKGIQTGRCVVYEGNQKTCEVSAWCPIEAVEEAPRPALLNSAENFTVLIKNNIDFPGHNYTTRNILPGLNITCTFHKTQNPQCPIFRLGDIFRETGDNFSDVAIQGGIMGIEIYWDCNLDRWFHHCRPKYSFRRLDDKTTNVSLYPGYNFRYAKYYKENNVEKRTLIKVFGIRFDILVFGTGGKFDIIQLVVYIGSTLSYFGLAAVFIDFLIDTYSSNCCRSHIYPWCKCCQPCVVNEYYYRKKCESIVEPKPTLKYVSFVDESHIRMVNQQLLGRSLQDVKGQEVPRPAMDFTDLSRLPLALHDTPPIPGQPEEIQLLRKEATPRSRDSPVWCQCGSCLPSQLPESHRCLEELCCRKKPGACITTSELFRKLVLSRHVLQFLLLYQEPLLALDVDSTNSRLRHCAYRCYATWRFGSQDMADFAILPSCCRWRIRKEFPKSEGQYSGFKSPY
Chain of human P2X7 receptor (Q99572 whole entry): as above

As to `O=C(NCC1(O)CCCC(C(F)(F)F)C1)c1cn(C2CCOC2)c2cccc(Cl)c12` (centres unmarked) [Compound 100, 4-chloro-N-((1-hydroxy-3-(trifluoromethyl)cyclohexyl)methyl)-1-(tetrahydrofuran-3-yl)-1H-indole-3-carboxamide], the IC50 in assay [1] (setting [3]) and in assay [2] (setting [4]) was more than 1000 nM in each case.

`O=C(NCC1CCC(F)(F)CC1)c1cn(CC2CC(F)(F)C2)c2cccc(Cl)c12` [Compound 127, 4-chloro-1-((3,3-difluorocyclobutyl)methyl)-N-((4,4-difluorocyclohexyl)methyl)-1H-indole-3-carboxamide]: the IC50 in assay [1] lay in the range of 500 to 999 nM; in assay [2], 10 to 100 nM.

Turning to `CC1(C)CCCC(O)(CNC(=O)c2cn(C3COC3)c3cccc(Cl)c23)C1` (centres unmarked) [Compound 64, 4-Chloro-1-oxetan-3-yl-1H-indole-3-carboxylic acid (1-hydroxy-3,3-dimethyl-cyclohexylmethyl)-amide], the IC50 in assay [1] and in assay [2] was 10 to 100 nM each time.

As to `CN1CC[C@H]1Cn1cc(C(=O)NCC2CCC(F)(F)CC2)c2c(Cl)cccc21` [Compound 151, (S)-4-chloro-N-((4,4-difluorocyclohexyl)methyl)-1-((1-methylazetidin-2-yl)methyl)-1H-indole-3-carboxamide], the IC50 in assay [1] and in assay [2] was 10 to 100 nM throughout.

Consider `O=C(NCC1(O)CCC(F)(F)CC1)c1cn(CC2CCO2)c2cccc(Cl)c12` (centres unmarked) [Compound 115, 4-chloro-N-((4,4-difluoro-1-hydroxycyclohexyl)methyl)-1-(oxetan-2-ylmethyl)-1H-indole-3-carboxamide], for which the IC50 in assay [1] and in assay [2] was 101 to 500 nM each time.

Consider `CCC1CCCC(O)(CNC(=O)c2cn(CCOC)c3cccc(Cl)c23)C1` (centres unmarked) [Compound 22, 4-chloro-N-((3-ethyl-1-hydroxycyclohexyl)methyl)-1-(2-methoxyethyl)-1H-indole-3-carboxamide], for which the values for the IC50 in assay [1] (setting [3]) and in assay [2] were more than 1000 nM and 101 to 500 nM, respectively.

Consider `O=C(NCC1CCC(F)(F)CC1)c1cn(CC2CCOCC2)c2cccc(Cl)c12` [Compound 168, 4-chloro-N-((4,4-difluorocyclohexyl)methyl)-1-((tetrahydro-2H-pyran-4-yl)methyl)-1H-indole-3-carboxamide], for which the IC50 lay within 101 to 500 nM in assay [1] and 10 to 100 nM in assay [2].

For the compound `COCCn1cc(C(=O)NCC2(c3ccc(C(F)(F)F)cc3)CCOCC2)c2c(Cl)cccc21` [Compound 38], the IC50 in assay [1] lay within 101 to 500 nM; in assay [2], 10 to 100 nM.

On to `O=C(NCC1CCC(F)(F)CC1)c1cn(CC2CCCO2)c2cccc(Cl)c12` (centres unmarked) [Compound 144, 4-chloro-N-((4,4-difluorocyclohexyl)methyl)-1-((tetrahydrofuran-2-yl)methyl)-1H-indole-3-carboxamide], for which the IC50 was in the range of 101 to 500 nM in assay [1] and 10 to 100 nM in assay [2].

In the case of `CN1CC(n2cc(C(=O)NCC3(O)CCC(F)(F)CC3)c3c(Cl)cccc32)C1` [Compound 118, 4-chloro-N-((4,4-difluoro-1-hydroxycyclohexyl)methyl)-1-(1-methylazetidin-3-yl)-1H-indole-3-carboxamide], the figures for the IC50 in assay [1] and in assay [2] were 10 to 100 nM and 500 to 999 nM, respectively.

In the case of `O=C(NCC1(O)CCC(F)(F)CC1)c1cn(CC2CCCCO2)c2cccc(Cl)c12` (centres unmarked) [Compound 166, 4-chloro-N-((4,4-difluoro-1-hydroxycyclohexyl)methyl)-1-((tetrahydro-2H-pyran-2-yl)methyl)-1H-indole-3-carboxamide], the IC50 in assay [1] and in assay [2] was 10 to 100 nM in each case.

As for `O=C(NCC1(O)CCCC(F)(F)C1)c1cn(CC2CCNC2)c2cccc(Cl)c12` (centres unmarked) [Compound 159, 4-chloro-N-((3,3-difluoro-1-hydroxycyclohexyl)methyl)-1-(pyrrolidin-3-ylmethyl)-1H-indole-3-carboxamide], the IC50 is 101 to 500 nM in assay [1] and 10 to 100 nM in assay [2].

Take `O=C(NCC1C[C@@H]2CC[C@H]1C2)c1cn(C2CCOC2)c2cccc(Cl)c12` (stereo partly drawn) [Compound 105, 4-Chloro-1-(tetrahydro-furan-3-yl)-1H-indole-3-carboxylic acid ((1S,4R)-1-bicyclo[2.2.1]hept-2-ylmethyl)-amide]: the IC50 fell in the range of 101 to 500 nM in assay [1] and 10 to 100 nM in assay [2].

Turning to `O=C(NCC1(O)CCCC(F)(F)C1)c1cn(CCN2CCCC2=O)c2cccc(Cl)c12` (centres unmarked) [Compound 188, 4-chloro-N-((3,3-difluoro-1-hydroxycyclohexyl)methyl)-1-(2-(2-oxopyrrolidin-1-yl)ethyl)-1H-indole-3-carboxamide], the IC50 in assay [1] and in assay [2] was 10 to 100 nM in each case.

Regarding `O=C(NCC1CCC(F)(F)CC1)c1cn(CCN2CCCC2)c2cccc(Cl)c12` [Compound 179, 4-chloro-N-((4,4-difluorocyclohexyl)methyl)-1-(2-(pyrrolidin-1-yl)ethyl)-1H-indole-3-carboxamide], the IC50 in assay [1] and in assay [2] was 101 to 500 nM in each case.

Take `O=C(NCC1CCC(F)(F)CC1)c1cn(C[C@H]2CCCO2)c2cccc(Cl)c12` [Compound 135, (R)-4-chloro-N-((4,4-difluorocyclohexyl)methyl)-1-((tetrahydrofuran-2-yl)methyl)-1H-indole-3-carboxamide]: the IC50 in assay [1] and in assay [2] was 10 to 100 nM each time.

In the case of `COCCn1cc(C(=O)NCC2(O)CCC(F)(F)CC2)c2c(Cl)cccc21` [Compound 40, 4-chloro-N-((4,4-difluoro-1-hydroxycyclohexyl)methyl)-1-(2-methoxyethyl)-1H-indole-3-carboxamide], the IC50 in assay [1] and in assay [2] was 10 to 100 nM throughout.

`CC(C)OCCn1cc(C(=O)NCC2CCC(F)(F)CC2)c2c(Cl)cccc21` [Compound 128]: the IC50 in assay [1] and in assay [2] was 101 to 500 nM each time.

Turning to `O=C(NCCC1CCCC1)c1cn(C2CCOC2)c2cccc(Cl)c12` (centres unmarked) [Compound 108, 4-Chloro-1-(tetrahydro-furan-3-yl)-1H-indole-3-carboxylic acid (2-cyclopentyl-ethyl)-amide], the IC50 in assay [1] was 101 to 500 nM; in assay [2], 10 to 100 nM.

Take `C[C@H]1CCC[C@@](O)(CNC(=O)c2cn(CC3CCCO3)c3cccc(Cl)c23)C1` (stereo partly drawn) [Compound 140, 4-chloro-N-(((1S,3S)-1-hydroxy-3-methylcyclohexyl)methyl)-1-((tetrahydrofuran-2-yl)methyl)-1H-indole-3-carboxamide]: the IC50 in assay [1] and in assay [2] was 10 to 100 nM in each case.

In the case of `O=C(NCC1CCCOC1)c1cn(C2COC2)c2cccc(Cl)c12` (centres unmarked) [Compound 74, 4,4-Chloro-1-oxetan-3-yl-1H-indole-3-carboxylic acid (tetrahydro-pyran-3-ylmethyl)-amide], the IC50 in assay [1] (setting [3]) and in assay [2] (setting [4]) was more than 1000 nM each time.

With `O=C(NCC1CCC(F)(F)CC1)c1cn(CC2(O)CC2)c2cccc(Cl)c12` [Compound 117, 4-chloro-N-((4,4-difluorocyclohexyl)methyl)-1-((1-hydroxycyclopropyl)methyl)-1H-indole-3-carboxamide], the IC50 was in the range of 101 to 500 nM in assay [1] and 10 to 100 nM in assay [2].

Consider `O=C(NCC1CCC(F)(F)CC1)c1cn(CCN2CCCCC2)c2cccc(Cl)c12` [Compound 193, 4-chloro-N-((4,4-difluorocyclohexyl)methyl)-1-(2-(piperidin-1-yl)ethyl)-1H-indole-3-carboxamide], for which the IC50 in assay [1] and in assay [2] was 10 to 100 nM throughout.

As for `O=C(NCC1CC(C(F)(F)F)CC(F)(F)C1)c1cn(C2COC2)c2cccc(Cl)c12` (centres unmarked) [Compound 91, 4-chloro-N-((3,3-difluoro-5-(trifluoromethyl)cyclohexyl)methyl)-1-(oxetan-3-yl)-1H-indole-3-carboxamide], the figures for the IC50 in assay [1] and in assay [2] were 101 to 500 nM and 10 to 100 nM, respectively.

On to `C[C@@H]1CCC[C@](O)(CNC(=O)c2cn(CC3CCCO3)c3cccc(Cl)c23)C1` (stereo partly drawn) [Compound 143, 4-chloro-N-(((1R,3R)-1-hydroxy-3-methylcyclohexyl)methyl)-1-((tetrahydrofuran-2-yl)methyl)-1H-indole-3-carboxamide], for which the IC50 in assay [1] lay within 101 to 500 nM; in assay [2] it was 10 to 100 nM.

Turning to `COCCn1cc(C(=O)NCCc2ccc(F)cc2Cl)c2c(Cl)cccc21` [Compound 34, 4-Chloro-1-(2-methoxy-ethyl)-1H-indole-3-carboxylic acid [2-(4-fluoro-2-chloro-phenyl)-ethyl]-amide], the IC50 in assay [1] and in assay [2] was 101 to 500 nM throughout.

With `O=C(NCC1CCCC(C(F)(F)F)C1)c1cn(C2COC2)c2cccc(Cl)c12` (centres unmarked) [Compound 56, 4-Chloro-1-oxetan-3-yl-1H-indole-3-carboxylic acid (3-trifluoromethyl-cyclohexylmethyl)-amide], the IC50 in assay [1] lay in the range of 101 to 500 nM; in assay [2], 10 to 100 nM.

`CN1CCOCC1Cn1cc(C(=O)NCC2CCC(F)(F)CC2)c2c(Cl)cccc21` (centres unmarked) [Compound 184, 4-chloro-N-((4,4-difluorocyclohexyl)methyl)-1-((4-methylmorpholin-3-yl)methyl)-1H-indole-3-carboxamide]: the IC50 in assay [1] and in assay [2] was 101 to 500 nM in each case.
